From EP4431090A1, “SOLFONAMIDES ACTING AS MITOCHONDRIAL COMPLEX I MODULATOR COMPOUNDS” (Istesso 1 Limited, priority 2023, dated 2024)
Several values for one entry are separate records, joined by “and”; a condition that tells them apart may be missing. Identical values can stand only once. Marks after values point to notes of the source that are not given here.

What was measured:
[1] = test system: human primary myeloid cells (osteoclasts); experiment: Mitochondrial phenotype assessment in osteoclasts (electron microscopy); format: cell-based; conditions: rotenone 100 nM; Figure 3B
Experimental: Peripheral blood mononuclear cells were isolated from human whole blood by differential centrifugation over Ficoll-Paque PLUS (GE Healthcare Biosciences). CD14+ monocytes were purified from the freshly isolated PBMCs using the CD14+ selection kit (StemCells. UK) by positive magnetic selection according to manufacturer's instructions . Cells were differentiated to osteoclasts by adding 1×10^6 ml-1 cells in complete minimum essential medium-alpha supplemented with 10% heat inactivated fetal bovine serum (FBS, Invitrogen,UK),2mM glutamine (Invitrogen,UK) 20U ml-1 penicillin, 100ug/ml streptomycin (Sigma ALdrich, UK) along with 25ng ml-1 recombinant human M-CSF (Peprotech, UK) and 25 ng ml-1 RANKL for 6 days. On th^e 6th day, the cells were treated with test compound (final concentration 0.03-1 uM, 0,05 % DMSO) or a control, rotenone (100 nM).
Adherent cells were fixed in 2.5% glutaraldehyde in 0.1 M cacodylate buffer, pH 7.4, for 1 h, post fixed with 1% osmium tetroxide (Electron Microscopy Science), dehydrated in a graded series of ethanol, and embedded in Epon (Electron Microscopy Science). The embedded samples were sectioned by an ultramicrotome (Ultracut E, Richert-Jung, Leica Microsystem). Thin sections (90 nm thick) were collected on 300 mesh nickel grids and stained with uranyl acetate (Electron Microscopy Science) and lead citrate. […]

[2] = test system: human primary lung fibroblasts; experiment: Cell proliferation (BrdU incorporation, nucleus counts) with compound washout; format: cell-based; conditions: for cell proliferation (BRdU incorporation and nucleus counts): pyruvate-restricted conditions, 24-hours compound treatment; for recovery of cell proliferation after compound washout (BrdU incorporation and nucleus counts): 24-hours incubation in pyruvate-free media, highest tested concentration
Experimental: Human primary lung fibroblasts were plated at a concentration of 5 × 10^3 cells/well in 96well plates in 100 µL DMEM complete media (5.5 mM glucose, 2 mM L-glutamine, and 1 mM pyruvate) containing 1% penicillin-streptomycin and 10% heat-inactivated foetal bovine serum. Cells were incubated overnight at 37°C / 5% CO2 to allow cell attachment. On the day of the treatment, cell culture medium was removed, and the cells were washed three times with Gibco™ DMEM, no glucose, no L-glutamine, no pyruvate, no phenol red + 1% penicillin-streptomycin and 10% heat inactivated foetal bovine serum (termed `basal' culture medium). Fresh cell culture media (without pyruvate) was added to the wells. Test compounds were prepared as 10x final concentration solutions in pyruvate-free medium. Following 24-hours compound treatment (in 5% CO2,37°C cell incubator), spent medium was removed from all wells and were thoroughly washed thrice with basal cell culture medium. For washout assay condition, 100 µL of pyruvate-free media was added per well. For No Washout, 90 µL of pyruvate-free media and 10 µL of 10x final assay concentration prepared test agents (or assay media) were added per well. Recovery of cell proliferation was measured after 24-hours incubation at 37°C / 5% CO2 with either pyruvate-free media (without re-addition of the compound) or re-addition of compounds in pyruvate-free media.
To assess nucleus counts, formaldehyde was added to a final concentration of 4%. Following a further 20-minute incubation at room temperature, the medium was aspirated, the cells were washed twice with 200 µL TBS-T (1x TBS + 0.1% Tween 20) and the nuclei were stained with 50 µL of PBS containing 10% heat inactivated foetal bovine serum, 0.1% Triton-X-100 and 2 µM Hoechst dye. Following a 30-minute incubation at room temperature, protected from light, the cells were washed twice with TBS-T, and cells were counted in 100 µL PBS solution using an ImageXpress Pico system with stitched plate acquisition (4x magnification), DAPI channel (50 ms exposure, -3 digital confocal setting).
When cells grow and divide (termed proliferation), cells progress through the cell cycle, a tightly regulated process that consists of two main activities: DNA replication and mitosis/cell division. As a method of accurately quantifying cellular proliferation rate, the pyrimidine analogue, BrdU can be utilised to measure DNA replication. BrdU can be incorporated into the newly synthesized DNA in place of thymidine. Following incubation of proliferating cells with BrdU for 20 hours, labelling solution was removed thoroughly, and cells were fixed with 70 µL of fix solution for 30 min at room temperature. […] Eu-fluorescence was measured in a time-resolved manner using the PHERAstar FSX (Ex337/ Em620 nm). […]

[3] = test system: bleomycin-induced lung fibrosis; experiment: Mouse bleomycin-induced lung fibrosis; format: in vivo, C57BI/6 mice; conditions: scale 0-5, Dose (mg/kg/day): Nintedanib 30 b.d., HMC-C-01-A 10 q.d., mean ± s.e.m.
Experimental: Eight- to ten-week-old female C57BI/6 mice were used for all procedures. Animals were housed in groups of 4 and were maintained at 22°C ± 3°C on a 12-hour light/dark cycle with food and water ad libitum. Bleomycin was prepared by dissolving in saline at 1.5 mg/mL. All mice were administered intranasally with 3 mg/kg bleomycin. Seven days after bleomycin administration, vehicle control, nintedanib or MCIM compound administration was initiated. Nintedanib was administered twice daily (b.d.) by oral gavage at a total daily dose of 30 mg/kg/day for 14 days. MCIM compounds were administered once daily (q.d.) by oral gavage at a total daily dose of either 10 or 20 mg/kg/day for 14 days.
On the 14th day, lungs were collected after perfusion. The left lung lobe was assessed for fibrosis by measuring total lung hydroxyproline levels. The right lung lobes were fixed and sectioned for histopathology. […]
The data were analysed by generating an average histopathology score across each treatment group. […]

[4] = test system: collagen-induced arthritis; experiment: Mouse collagen-induced arthritis; format: in vivo, DBA/1j mice

With `C=C(C)[C@H]1Cc2c(ccc3c2O[C@@H]2COc4cc(OC)c(OC)cc4[C@@H]2C3=O)O1` [rotenone] the mitochondrial morphology [1] was “increased numbers of abnormal mitochondria which were more rounded and had condensed cristae with evidence of fragmentation”, the “cell proliferation (BRdU incorporation and nucleus counts)” value [2] was “reduce cell proliferation” and the “recovery of cell proliferation after compound washout (BrdU incorporation and nucleus counts)” value [2] was “no recovery”.

For `Cc1nc(-c2nc(-c3ccc(OC(F)(F)F)cc3)no2)nn1Cc1cccc(N2CCC(S(C)(=O)=O)CC2)c1` [IACS-010759], the “cell proliferation (BRdU incorporation and nucleus counts)” value [2] was “reduce cell proliferation” and the “recovery of cell proliferation after compound washout (BrdU incorporation and nucleus counts)” value [2] was “no recovery”.

`COC(=O)c1ccc2c(c1)NC(=O)/C2=C(\Nc1ccc(N(C)C(=O)CN2CCN(C)CC2)cc1)c1ccccc1` [Nintedanib] was tested, and the “AT2 cell number Treatment value” ([3]; hyperplasia score, ABD900 20 q.d., two studies) was 1.6 ± 0.2 and 1.1 ± 0.1 and the “AT2 cell size Treatment value” ([3]; hypertrophy score) was 1.6 ± 0.2.

With `C[C@@H]1CCN(C(=O)CC#N)C[C@@H]1N(C)c1ncnc2[nH]ccc12` [Tofacitinib] the “appearance of the osteoid/new bone formed” value ([4]; 10 mg/kg/day MCIM compound, 3 mg/kg/day etanercept, Figure 23, tofacitinib data not shown) was “reactive and sporadic deposits”, the “Bone resorption (sum) Treatment value” ([4]; once daily for 14 days, Dose (mg/kg/day) as printed: Etanercept 3, HMC-C-01-A 3, all others 10, sum from all limbs per animal per group) was 48** and the “Bone formation (sum) Treatment value” ([4]; osteoid zones, once daily for 14 days, Dose (mg/kg/day) as printed: Etanercept 3, HMC-C-01-A 3, all others 10, sum from all limbs per animal per group) was 0.
